Test results reported in PubChem BioAssay (NCI).
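Where inhibition never reached the appropriate level, the endpoint shown equals the highest concentration tested. Otherwise, values were interpolated linearly from a five-concentration, 48-hour dose response in 96-well plates. TGI marks complete inhibition of growth.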

Legend:
Assay in all cases: growth of human tumour cells (NCI), 48 h
MCF7 breast = tested on: MCF7 breast
IGROV1 ovarian = tested on: IGROV1 ovarian
RXF 393 renal = tested on: RXF 393 renal
786-0 renal = tested on: 786-0 renal
COLO 205 colon = tested on: COLO 205 colon
UACC-62 melanoma = tested on: UACC-62 melanoma
OVCAR-4 ovarian = tested on: OVCAR-4 ovarian
HCC-2998 colon = tested on: HCC-2998 colon
HL-60(TB) leukemia = tested on: HL-60(TB) leukemia
TK-10 renal = tested on: TK-10 renal
SF-539 CNS = tested on: SF-539 CNS
NCI/ADR-RES ovarian = tested on: NCI/ADR-RES ovarian
A549 NSCLC = tested on: A549 NSCLC
SK-MEL-5 melanoma = tested on: SK-MEL-5 melanoma
OVCAR-8 ovarian = tested on: OVCAR-8 ovarian
DU-145 prostate = tested on: DU-145 prostate
RPMI-8226 leukemia = tested on: RPMI-8226 leukemia
NCI-H522 lung = tested on: NCI-H522 lung
MDA-MB-231 breast = tested on: MDA-MB-231 breast
OVCAR-3 ovarian = tested on: OVCAR-3 ovarian

Measured: TGI

C[C@]12CC[C@@H]3c4ccc(O)cc4CC[C@H]3[C@@H]1CC[C@@H]2OP(=O)(O)O
> 100 µM: all assays above
